The source of these data is patent publication US20160339026A1, “TOPICAL COMPOSITIONS COMPRISING MODULATORS OF TRPM8” (Senomyx, Inc., priority 2015, published 2016).

Like-named read-outs stand apart in the source and are kept apart here. A value given as a limit tells only on which side of the number the result lay.

Assay [1] deals with T1, hTRPM8 (Homo sapiens, UniProt Q7Z2W7).
T1 construct: expressed in transfected cells
In words: Cell line stably expressing hTRPM8, agonist assay, compounds of Formula (I). It is filed as cell-based. To be noted: Table 1.7. An excerpt: A mammalian cell line derivative which stably expresses hTRPM8 was used in biological assays in association with testing the present compounds with cool-tasting or -feeling properties (Servant et al. US 2007/0259354 A1 and references cited therein). […] The present compounds have shown strong activity as agonists of hTRPM8. Assay results for compounds are illustrated in Table 1.1 below. Specifically, the Examples listed in Table 1.1, i.e., Compounds A1 to Compounds U10 are the specific compounds above that fall within Formula (I).

The nature of assay [2]: Sensory study of topically applied Compound 101. It is filed as in vivo, human. The procedure:
The response of subjects to topically applied Compound 101 was assessed. Subjects were exposed to a solid formulation of Compound 101 in small quantities. […] In another assessment, subjects were exposed to a dilute airborne microparticulate Compound 101.

For assay [3], the target named is T1, hTRPM8. To be noted: Table 1.8; according to WO2011/061330 A2 E Table C 3-14; cited from earlier work.

T1 sequence (Q7Z2W7 whole entry): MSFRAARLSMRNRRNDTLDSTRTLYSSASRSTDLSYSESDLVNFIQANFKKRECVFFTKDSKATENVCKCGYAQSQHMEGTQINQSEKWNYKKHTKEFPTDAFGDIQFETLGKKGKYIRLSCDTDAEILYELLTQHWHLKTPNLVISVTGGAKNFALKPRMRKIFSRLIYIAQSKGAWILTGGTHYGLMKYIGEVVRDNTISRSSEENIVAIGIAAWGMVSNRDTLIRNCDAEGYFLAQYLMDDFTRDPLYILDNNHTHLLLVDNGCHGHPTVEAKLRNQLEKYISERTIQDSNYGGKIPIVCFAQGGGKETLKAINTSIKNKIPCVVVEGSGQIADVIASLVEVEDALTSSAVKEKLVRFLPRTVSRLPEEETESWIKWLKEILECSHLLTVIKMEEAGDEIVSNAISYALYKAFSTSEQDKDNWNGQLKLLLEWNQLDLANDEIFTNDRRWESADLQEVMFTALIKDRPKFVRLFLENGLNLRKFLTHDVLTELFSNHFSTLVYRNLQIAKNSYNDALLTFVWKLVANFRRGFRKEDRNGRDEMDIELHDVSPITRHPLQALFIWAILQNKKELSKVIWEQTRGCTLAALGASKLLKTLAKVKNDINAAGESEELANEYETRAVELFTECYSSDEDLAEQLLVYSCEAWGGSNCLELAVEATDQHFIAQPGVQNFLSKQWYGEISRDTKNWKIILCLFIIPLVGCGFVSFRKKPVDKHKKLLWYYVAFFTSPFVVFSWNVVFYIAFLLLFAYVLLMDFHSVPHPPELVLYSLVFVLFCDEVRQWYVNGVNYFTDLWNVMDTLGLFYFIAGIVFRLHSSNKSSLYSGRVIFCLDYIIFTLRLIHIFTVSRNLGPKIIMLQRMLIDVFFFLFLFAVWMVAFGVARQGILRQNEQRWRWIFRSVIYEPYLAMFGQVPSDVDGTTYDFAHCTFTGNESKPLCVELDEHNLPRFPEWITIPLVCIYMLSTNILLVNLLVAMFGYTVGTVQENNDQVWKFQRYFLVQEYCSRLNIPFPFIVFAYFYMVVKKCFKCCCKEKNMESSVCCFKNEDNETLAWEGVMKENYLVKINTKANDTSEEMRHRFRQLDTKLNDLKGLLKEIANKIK

By EC50 is commonly meant the midpoint of the concentration-response curve. Take `Cc1ccc(OCC(=O)N(Cc2ccccc2)c2ccccn2)cc1` [drawing 56 R=4-Me R1=2-Pyridyl Ar=Phenyl]: in assay [1], the 50% effective concentration (EC50) worked out at 4.72 µM and the “EC50 Ratio (WS-3)” value came out at 0.6. In the same order, the values of `CCN(Cc1ccccc1)C(=O)COc1ccccc1` [drawing 56 R=H R1=Ethyl Ar=Phenyl] are 9.21 µM and 0.5. As to `O=C(COc1ccc(Br)cc1)N(Cc1ccccc1)c1ccccn1` [drawing 56 R=4-Br R1=2-Pyridyl Ar=Phenyl], in assay [1], the EC50 was determined as 15.6 µM and the “EC50 Ratio (WS-3)” value is 0.2. With `Cc1ccc(OCC(=O)N(Cc2cccs2)c2ccn[nH]2)cc1` [Compound 101], the “Sensation reported by subjects” value in assay [2] (exposure to a solid formulation in small quantities) is “all subjects reported a “tingling” and “cooling” sensation”; in assay [2] (exposure to dilute airborne microparticulate compound), “exhibited a “cooling smell” and induced “tingling sensation” on the skin”. For the compound `CCN(Cc1ccccc1)C(=O)COc1ccc(C)cc1` [drawing 56 R=4-Me R1=Ethyl Ar=Phenyl], in assay [1], the 50% effective concentration (EC50) turned out to be 0.776 µM and the “EC50 Ratio (WS-3)” value is 4.2.

Regarding `CCN(Cc1ccccc1)C(=O)C=Cc1ccc2c(c1)OCO2`, the half-maximal effective concentration (EC50) in assay [3] was 1.5 µM. In assay [1], `Cc1ccc(OCC(=O)N(C)Cc2ccccc2)cc1` [drawing 56 R=4-Me R1=Methyl Ar=Phenyl] had a concentration for a half-maximal effect (EC50) of over 100 µM.
